Test results as given in patent US10613104B2, “Assay to determine anticoagulants in blood or blood plasma” (ZAFENA AB, priority 2014, dated 2020).

System: prothrombin time (PT) of normal plasma NKP
Assay: Three wet-chemistry Owren PT methods (Simple Simon PT; 20, 10, 5 μL sample in 200 μL reagent) on normal plasma NKP with added anticoagulant
Format: biochemical
Method: Experimental work was performed with the commercially available ambient room temperature coagulation instrument, Simple Simon P T Zafena A B, Linköping, Sweden, with functions described in EP 1 636 595 B2. One instrument or reader was used for each PT-method. Alternatively, the same instrument could be used for all PT-methods.
The three instruments were used together standing next to one another on a laboratory bench in thermal equilibrium with the ambient room temperature of the laboratory.
The ambient room temperature in the laboratory where the work was done varied between 21° C. and 26° C.
The PT-reagent was the one delivered together with lot N223M of the Simple Simon PT product, a reagent of Owren-type that thus contains effective amounts of thromboplastin, fibrinogen and FV (the thromboplastin of rabbit brain origin and the fibrinogen and the FV of bovine blood plasma origin). Other Owren type reagents could also be used.
The reagent was in portions of 200 μL to which sample, citrated blood or citrated blood plasma, was added and mixed. The addition was by an end-to-end plastic capillary mounted at one end of a tubular body with a displacement mechanism in the other end, this to allow convenient mixing of sample and reagent. Such Mixxocaps with 10 μL capillaries are supplied with the Simple Simon PT product. To perform the experiments described, some Mixxocaps were fitted with 20 μL capillaries, or 5 μL capillaries instead of the 10 μL capillaries with which they were supplied by the manufacturer.
The ratios between the volume of blood or blood plasma to the volume of liquid reagent used in the experiments were 1:11, 1:21 and 1:41. Other ratios lying within the range of 1:5 and 1:100 or within the range of 1:2 and 1:200 could be used.
Anticoagulated normal plasma was the NKP product GHI-163 lot 10188, MediRox AB, Nyköping, Sweden.
It was further relevant that all three PT-methods were calibrated, according to the invention, to show INR 1.000 for unadulterated NKP, and INR 1.357 for the NKP 1:2. All primary INR values, the results that appeared on the instrument screens (one instrument or reader was used for each PT-method), were therefore transformed to the corrected/calibrated INRc by the formula A*INRexp(B) where a and b were selected to given NKP and NKP 1:2 their desired values, 1.000 and 1.357, respectively. The INR-value of the NKP 1:2 was calculated by the formula of Lindahl et al for the INR of corresponding to PT-activity of 50% (half of the 100% that equates to INR 1.000). Above the INR calibrated columns (INRc) there is an upper number and a lower number, these are the above mentioned A and B, respectively.
As deemed relevant the upper number is selected to make NKP 1:2 to show INRc 1.357.
Clinical levels of interest range from 50 to 1000 μg/L in blood plasma.
In the selected calibration INR 1.000 and INR 1.357 were assigned to NKP and NKP 1:2, respectively, which was the same relevant calibration as selected in Examples 1 and 3 above.

[1] = apixaban 50 μg/L in NKP plasma, from PT (s)
[2] = apixaban 50 μg/L in NKP plasma, from instrument INR
[3] = apixaban 100 μg/L in NKP plasma
[4] = apixaban 100 μg/L in NKP plasma, from PT (s)
[5] = apixaban 100 μg/L in NKP plasma, from instrument INR
[6] = apixaban 200 μg/L in NKP plasma
[7] = apixaban 200 μg/L in NKP plasma, from PT (s)
[8] = apixaban 200 μg/L in NKP plasma, from instrument INR
[9] = apixaban 300 μg/L in NKP plasma
[10] = apixaban 300 μg/L in NKP plasma, from PT (s)
[11] = apixaban 300 μg/L in NKP plasma, from instrument INR
[12] = apixaban 400 μg/L in NKP plasma
[13] = apixaban 400 μg/L in NKP plasma, from PT (s)
[14] = apixaban 400 μg/L in NKP plasma, from instrument INR
[15] = apixaban 500 μg/L in NKP plasma
[16] = apixaban 500 μg/L in NKP plasma, from PT (s)
[17] = apixaban 500 μg/L in NKP plasma, from instrument INR
[18] = apixaban 600 μg/L in NKP plasma
[19] = apixaban 600 μg/L in NKP plasma, from PT (s)
[20] = apixaban 600 μg/L in NKP plasma, from instrument INR
[21] = apixaban 800 μg/L in NKP plasma
[22] = apixaban 800 μg/L in NKP plasma, from PT (s)
[23] = apixaban 800 μg/L in NKP plasma, from instrument INR
[24] = apixaban 1000 μg/L in NKP plasma
[25] = apixaban 1000 μg/L in NKP plasma, from PT (s)
[26] = apixaban 1000 μg/L in NKP plasma, from instrument INR

COc1ccc(-n2nc(C(N)=O)c3c2C(=O)N(c2ccc(N4CCCCC4=O)cc2)CC3)cc1 [apixaban]
INR 5 μL sample (apixaban 50 μg/L in NKP plasma): 1.12 | INR 10 μL sample (apixaban 50 μg/L in NKP plasma): 1.18 | INR 20 μL sample (apixaban 50 μg/L in NKP plasma): 1.28 | PT (s) 5 μL sample (apixaban 50 μg/L in NKP plasma): 47.7 s | PT (s) 10 μL sample (apixaban 50 μg/L in NKP plasma): 39.1 s | PT (s) 20 μL sample (apixaban 50 μg/L in NKP plasma): 35.5 s | INRc 20 μL sample [1]: 1.23 | ΔINRc 10 μL − 5 μL [1]: 0.04 | ΔINRc 20 μL − 5 μL [1]: 0.19 | INRc 20 μL sample [2]: 1.30 | ΔINR 10 μL − 5 μL [2]: 0.07 | ΔINR 20 μL − 5 μL [2]: 0.24 | INR 5 μL sample [3]: 1.15 | INR 10 μL sample [3]: 1.27 | INR 20 μL sample [3]: 1.55 | PT (s) 5 μL sample [3]: 49.1 s | PT (s) 10 μL sample [3]: 41.5 s | PT (s) 20 μL sample [3]: 39.3 s | INRc 20 μL sample [4]: 1.61 | ΔINRc 10 μL − 5 μL [4]: 0.12 | ΔINRc 20 μL − 5 μL [4]: 0.53 | INRc 10 μL sample [5]: 1.24 | INRc 20 μL sample [5]: 1.67 | ΔINR 10 μL − 5 μL [5]: 0.15 | ΔINR 20 μL − 5 μL [5]: 0.58 | INR 5 μL sample [6]: 1.29 | INR 10 μL sample [6]: 1.53 | INR 20 μL sample [6]: 2.12 | PT (s) 5 μL sample [6]: 54.4 s | PT (s) 10 μL sample [6]: 47.9 s | PT (s) 20 μL sample [6]: 46.7 s | INRc 5 μL sample [7]: 1.20 | INRc 20 μL sample [7]: 2.53 | ΔINRc 10 μL − 5 μL [7]: 0.31 | INRc 5 μL sample [8]: 1.22 | INRc 10 μL sample [8]: 1.55 | INRc 20 μL sample [8]: 2.51 | ΔINR 10 μL − 5 μL [8]: 0.34 | ΔINR 20 μL − 5 μL [8]: 1.30 | INR 5 μL sample [9]: 1.44 | INR 10 μL sample [9]: 1.82 | INR 20 μL sample [9]: 2.82 | PT (s) 5 μL sample [9]: 60.6 s | PT (s) 10 μL sample [9]: 54.6 s | PT (s) 20 μL sample [9]: 54.8 s | INRc 5 μL sample [10]: 1.35 | INRc 10 μL sample [10]: 1.88 | INRc 20 μL sample [10]: 3.85 | ΔINRc 10 μL − 5 μL [10]: 0.53 | ΔINRc 20 μL − 5 μL [10]: 2.50 | INRc 5 μL sample [11]: 1.35 | INRc 10 μL sample [11]: 1.91 | INRc 20 μL sample [11]: 3.66 | ΔINR 10 μL − 5 μL [11]: 0.56 | ΔINR 20 μL − 5 μL [11]: 2.30 | INR 5 μL sample [12]: 1.58 | INR 20 μL sample [12]: 3.68 | PT (s) 5 μL sample [12]: 66.3 s | PT (s) 10 μL sample [12]: 62.3 s | PT (s) 20 μL sample [12]: 63.5 s | INRc 5 μL sample [13]: 1.48 | INRc 20 μL sample [13]: 5.66 | ΔINRc 10 μL − 5 μL [13]: 0.86 | ΔINRc 20 μL − 5 μL [13]: 4.18 | INRc 5 μL sample [14]: 1.48 | INRc 20 μL sample [14]: 5.18 | ΔINR 10 μL − 5 μL [14]: 0.87 | ΔINR 20 μL − 5 μL [14]: 3.70 | INR 5 μL sample [15]: 1.73 | INR 10 μL sample [15]: 2.37 | INR 20 μL sample [15]: 4.47 | PT (s) 5 μL sample [15]: 72.0 s | PT (s) 10 μL sample [15]: 67.0 s | PT (s) 20 μL sample [15]: 70.8 s | INRc 5 μL sample [16]: 1.62 | INRc 10 μL sample [16]: 2.64 | INRc 20 μL sample [16]: 7.54 | ΔINRc 10 μL − 5 μL [16]: 1.02 | ΔINRc 20 μL − 5 μL [16]: 5.92 | INRc 5 μL sample [17]: 1.62 | INRc 10 μL sample [17]: 2.63 | INRc 20 μL sample [17]: 6.69 | ΔINR 10 μL − 5 μL [17]: 1.02 | ΔINR 20 μL − 5 μL [17]: 5.07 | INR 5 μL sample [18]: 1.90 | INR 10 μL sample [18]: 2.70 | INR 20 μL sample [18]: 5.56 | PT (s) 5 μL sample [18]: 78.8 s | PT (s) 10 μL sample [18]: 73.9 s | PT (s) 20 μL sample [18]: 79.9 s | INRc 5 μL sample [19]: 1.78 | INRc 10 μL sample [19]: 3.10 | INRc 20 μL sample [19]: 10.35 | ΔINRc 10 μL − 5 μL [19]: 1.32 | ΔINRc 20 μL − 5 μL [19]: 8.57 | INRc 5 μL sample [20]: 1.77 | INRc 10 μL sample [20]: 3.08 | INRc 20 μL sample [20]: 8.91 | ΔINR 10 μL − 5 μL [20]: 1.31 | ΔINR 20 μL − 5 μL [20]: 7.14 | INR 5 μL sample [21]: 2.22 | INR 10 μL sample [21]: 3.35 | INR 20 μL sample [21]: 7.81 | PT (s) 5 μL sample [21]: 91.7 s | PT (s) 10 μL sample [21]: 87.2 s | PT (s) 20 μL sample [21]: 96.9 s | INRc 5 μL sample [22]: 2.09 | INRc 20 μL sample [22]: 17.18 | ΔINRc 10 μL − 5 μL [22]: 1.99 | INRc 5 μL sample [23]: 2.06 | INRc 20 μL sample [23]: 13.91 | ΔINR 10 μL − 5 μL [23]: 1.94 | ΔINR 20 μL − 5 μL [23]: 11.85 | INR 5 μL sample [24]: 2.67 | INR 20 μL sample [24]: 10.70 | PT (s) 5 μL sample [24]: 111.2 s | PT (s) 10 μL sample [24]: 109.3 s | PT (s) 20 μL sample [24]: 117.4 s | INRc 20 μL sample [25]: 28.43 | INRo [25]: 0.75 | ΔINRc 10 μL − 5 μL [25]: 3.37 | ΔINRc 20 μL − 5 μL [25]: 25.85 | INRc 20 μL sample [26]: 21.03 | INRo [26]: 0.78 | ΔINR 10 μL − 5 μL [26]: 3.12 | ΔINR 20 μL − 5 μL [26]: 18.56 | content at which the INRc-difference (20 μL minus 5 μL) reaches 0.5 (normal plasma NKP, linear part of the graph (FIG. 8, FIG. 2)): about 80 μg/L
